Measured values reported in US20190330275A1 (priority 2016, published 2019).
“And” between values parts separate entries of the source, which are not always exact repeats. Equal values may be shown once. Peptide text beside a SMILES is read from it.

Columns and labels:
rat α3β4 nAChR = rat α3β4 nAChR (Rattus norvegicus, UniProt P04757+P12392); assay: cell-based; conditions: for IC50: α3β4 IC50 (half-blocking dose)
rat α6/α3β4 nAChR = rat α6/α3β4 nAChR (Rattus norvegicus, UniProt P04757+P12392+P43143); assay: cell-based
[1] = α6/α3β4 IC50 (half-blocking dose)

Sequence of rat α6/α3β4 nAChR (P04757 whole entry, looked up): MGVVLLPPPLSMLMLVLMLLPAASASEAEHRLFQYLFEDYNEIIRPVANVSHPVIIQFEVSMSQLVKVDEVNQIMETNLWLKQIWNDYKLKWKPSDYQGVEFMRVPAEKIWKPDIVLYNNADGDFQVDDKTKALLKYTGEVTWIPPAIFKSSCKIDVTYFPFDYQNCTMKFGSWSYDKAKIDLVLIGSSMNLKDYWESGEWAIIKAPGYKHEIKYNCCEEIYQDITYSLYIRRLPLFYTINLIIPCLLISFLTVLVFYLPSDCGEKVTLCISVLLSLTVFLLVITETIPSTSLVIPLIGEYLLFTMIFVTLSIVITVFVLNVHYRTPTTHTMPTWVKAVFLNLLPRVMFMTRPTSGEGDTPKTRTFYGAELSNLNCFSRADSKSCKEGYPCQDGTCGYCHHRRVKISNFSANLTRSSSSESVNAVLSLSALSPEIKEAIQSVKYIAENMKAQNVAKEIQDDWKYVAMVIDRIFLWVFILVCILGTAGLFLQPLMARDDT
Sequence of rat α6/α3β4 nAChR (P12392 whole entry, looked up): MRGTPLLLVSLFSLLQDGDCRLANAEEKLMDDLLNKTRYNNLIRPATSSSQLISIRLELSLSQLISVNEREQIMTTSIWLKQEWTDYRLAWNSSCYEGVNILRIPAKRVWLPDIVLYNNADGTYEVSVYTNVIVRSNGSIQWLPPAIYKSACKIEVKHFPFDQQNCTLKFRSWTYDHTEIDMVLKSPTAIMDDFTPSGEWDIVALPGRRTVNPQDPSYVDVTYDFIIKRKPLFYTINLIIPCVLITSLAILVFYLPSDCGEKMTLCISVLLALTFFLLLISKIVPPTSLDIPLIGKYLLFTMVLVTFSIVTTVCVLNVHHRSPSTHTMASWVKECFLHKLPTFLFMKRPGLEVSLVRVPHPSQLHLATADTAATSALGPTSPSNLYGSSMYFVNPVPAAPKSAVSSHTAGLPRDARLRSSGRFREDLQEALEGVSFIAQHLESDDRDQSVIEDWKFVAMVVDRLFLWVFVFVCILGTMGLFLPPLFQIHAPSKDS
Sequence of rat α6/α3β4 nAChR (P43143 whole entry, looked up): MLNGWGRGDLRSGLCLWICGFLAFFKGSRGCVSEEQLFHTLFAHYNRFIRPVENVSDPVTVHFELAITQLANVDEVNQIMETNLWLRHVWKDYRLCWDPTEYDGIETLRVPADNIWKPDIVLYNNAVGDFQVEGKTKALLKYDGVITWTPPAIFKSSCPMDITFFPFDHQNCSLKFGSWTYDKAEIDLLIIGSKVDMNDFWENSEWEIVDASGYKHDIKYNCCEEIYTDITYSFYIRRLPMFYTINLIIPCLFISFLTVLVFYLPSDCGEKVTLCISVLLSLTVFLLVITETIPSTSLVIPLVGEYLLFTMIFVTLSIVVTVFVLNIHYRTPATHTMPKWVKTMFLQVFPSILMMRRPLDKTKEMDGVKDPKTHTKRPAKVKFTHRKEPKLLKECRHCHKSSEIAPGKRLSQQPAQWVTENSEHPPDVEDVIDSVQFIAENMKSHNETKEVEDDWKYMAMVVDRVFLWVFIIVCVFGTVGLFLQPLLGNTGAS
Sequence of rat α3β4 nAChR (P04757 26-499 limits assumed): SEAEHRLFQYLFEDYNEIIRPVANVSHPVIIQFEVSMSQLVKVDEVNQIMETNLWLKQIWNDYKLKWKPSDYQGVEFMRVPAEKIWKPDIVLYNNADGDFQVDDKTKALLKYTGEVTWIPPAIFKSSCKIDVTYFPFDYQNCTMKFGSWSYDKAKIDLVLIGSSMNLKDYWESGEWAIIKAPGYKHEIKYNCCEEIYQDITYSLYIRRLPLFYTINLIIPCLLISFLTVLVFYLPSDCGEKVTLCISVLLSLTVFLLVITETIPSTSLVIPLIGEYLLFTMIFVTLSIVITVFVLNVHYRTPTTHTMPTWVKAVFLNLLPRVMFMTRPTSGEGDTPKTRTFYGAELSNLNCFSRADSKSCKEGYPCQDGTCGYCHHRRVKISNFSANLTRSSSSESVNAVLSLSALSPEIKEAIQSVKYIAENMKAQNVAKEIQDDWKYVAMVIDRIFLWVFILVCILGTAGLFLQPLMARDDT
Sequence of rat α3β4 nAChR (P12392 21-495 limits assumed): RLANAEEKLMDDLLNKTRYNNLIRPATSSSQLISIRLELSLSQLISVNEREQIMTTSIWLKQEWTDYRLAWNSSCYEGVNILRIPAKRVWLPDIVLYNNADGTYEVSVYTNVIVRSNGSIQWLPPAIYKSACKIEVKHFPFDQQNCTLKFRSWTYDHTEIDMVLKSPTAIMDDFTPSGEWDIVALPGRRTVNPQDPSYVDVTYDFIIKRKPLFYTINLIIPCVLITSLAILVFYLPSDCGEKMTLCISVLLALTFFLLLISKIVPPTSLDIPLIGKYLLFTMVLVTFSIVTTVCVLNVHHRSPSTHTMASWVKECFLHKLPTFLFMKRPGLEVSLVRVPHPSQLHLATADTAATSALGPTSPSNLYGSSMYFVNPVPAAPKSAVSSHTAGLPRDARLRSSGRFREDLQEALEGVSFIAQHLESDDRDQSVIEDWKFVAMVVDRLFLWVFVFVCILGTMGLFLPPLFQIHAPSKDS

Structure (SMILES)	IC50 (rat α3β4 nAChR) [nM]	IC50 (rat α6/α3β4 nAChR; [1]) [nM]	α3β4 IC50 ratio (rat α3β4 nAChR)	IC50 ratio of α6/α3β4 vs. α3β4 (Discrimination) (rat α6/α3β4 nAChR)	α6/α3β4 IC50 ratio (rat α6/α3β4 nAChR)	further results
CC[C@H](C)[C@@H]1NC(=O)[C@@H]2CCCN2C(=O)[C@H](CO)NC(=O)[C@H](CCSC)NC(=O)[C@H](C)NC(=O)[C@H](CO)NC(=O)[C@@H]2CSSC[C@H](NC(=O)CN)C(=O)N[C@@H](CSSC[C@@H](C(N)=O)NC1=O)C(=O)N[C@@H](CO)C(=O)N[C@@H](Cc1c[nH]cn1)C(=O)N1CCC[C@H]1C(=O)N[C@@H](C(C)C)C(=O)N2 [TxID, reference compound]						blocking of rat α3β4 nAChRs current (rat α3β4 nAChR): strong blocking activities; current blocked (rat α3β4 nAChR): 97% and 67%; elution time for current to return to the level of control current (rat α3β4 nAChR): ≤ 2 min; current blocked (rat α6/α3β4 nAChR): 85% and 46%; discrimination degree between α3β4 and α6β4* nAChRs (rat α6/α3β4 nAChR): 9.3 times
CC[C@H](C)[C@@H]1NC(=O)[C@@H]2CCCN2C(=O)[C@H](CO)NC(=O)[C@H](CCSC)NC(=O)[C@H](C)NC(=O)[C@H](CO)NC(=O)[C@H](CCCNC(=N)N)NC(=O)[C@@H]2CSSC[C@H](NC(=O)CN)C(=O)N[C@@H](CSSC[C@@H](C(N)=O)NC1=O)C(=O)N[C@@H](CO)C(=O)N[C@@H](Cc1c[nH]cn1)C(=O)N1CCC[C@H]1C(=O)N[C@@H](C(C)C)C(=O)N2 [TxID[9R]] (HELM PEPTIDE1{G.C.C.S.H.P.V.C.R.S.A.M.S.P.I.C.[am]}$PEPTIDE1,PEPTIDE1,2:R3-8:R3|PEPTIDE1,PEPTIDE1,3:R3-16:R3$$$V2.0)	> 10000	> 10000				
CC[C@H](C)[C@@H]1NC(=O)[C@@H]2CCCN2C(=O)[C@H](CO)NC(=O)[C@H](CCSC)NC(=O)[C@H](C)NC(=O)[C@H](CCCNC(=N)N)NC(=O)[C@H](CO)NC(=O)[C@@H]2CSSC[C@H](NC(=O)CN)C(=O)N[C@@H](CSSC[C@@H](C(N)=O)NC1=O)C(=O)N[C@@H](CO)C(=O)N[C@@H](Cc1c[nH]cn1)C(=O)N1CCC[C@H]1C(=O)N[C@@H](C(C)C)C(=O)N2 [TxID[10R]] (HELM PEPTIDE1{G.C.C.S.H.P.V.C.S.R.A.M.S.P.I.C.[am]}$PEPTIDE1,PEPTIDE1,2:R3-8:R3|PEPTIDE1,PEPTIDE1,3:R3-16:R3$$$V2.0)	> 10000	> 10000				
CC[C@H](C)[C@@H]1NC(=O)[C@H](CC(=O)O)NC(=O)[C@@H]2CCCN2C(=O)[C@H](CO)NC(=O)[C@H](CCSC)NC(=O)[C@H](C)NC(=O)[C@H](CO)NC(=O)[C@@H]2CSSC[C@H](NC(=O)CN)C(=O)N[C@@H](CSSC[C@@H](C(N)=O)NC1=O)C(=O)N[C@@H](CO)C(=O)N[C@@H](Cc1c[nH]cn1)C(=O)N1CCC[C@H]1C(=O)N[C@@H](C(C)C)C(=O)N2 [TxID[14D]] (HELM PEPTIDE1{G.C.C.S.H.P.V.C.S.A.M.S.P.D.I.C.[am]}$PEPTIDE1,PEPTIDE1,2:R3-8:R3|PEPTIDE1,PEPTIDE1,3:R3-16:R3$$$V2.0)	50.6	2260	14.1	44.7	66.6	IC50 (rat α6/α3β4 nAChR; α6/α3β4 IC50): 1000 to 10000 nM
CC[C@H](C)[C@@H]1NC(=O)[C@H](Cc2c[nH]cn2)NC(=O)[C@@H]2CCCN2C(=O)[C@H](CO)NC(=O)[C@H](CCSC)NC(=O)[C@H](C)NC(=O)[C@H](CO)NC(=O)[C@@H]2CSSC[C@H](NC(=O)CN)C(=O)N[C@@H](CSSC[C@@H](C(N)=O)NC1=O)C(=O)N[C@@H](CO)C(=O)N[C@@H](Cc1c[nH]cn1)C(=O)N1CCC[C@H]1C(=O)N[C@@H](C(C)C)C(=O)N2 [TxID[14H]] (HELM PEPTIDE1{G.C.C.S.H.P.V.C.S.A.M.S.P.H.I.C.[am]}$PEPTIDE1,PEPTIDE1,2:R3-8:R3|PEPTIDE1,PEPTIDE1,3:R3-16:R3$$$V2.0)	33	312	9.2	9.5	9.2	
CC[C@H](C)[C@@H]1NC(=O)[C@@H]2CCCN2C(=O)[C@H](CO)NC(=O)[C@H](CCSC)NC(=O)[C@H](C)NC(=O)[C@H](CO)NC(=O)[C@@H]2CSSC[C@H](NC(=O)[C@H](C)N)C(=O)N[C@@H](CSSC[C@@H](C(N)=O)NC1=O)C(=O)N[C@@H](CO)C(=O)N[C@@H](Cc1c[nH]cn1)C(=O)N1CCC[C@H]1C(=O)N[C@@H](C(C)C)C(=O)N2 [TxID[G1A]] (HELM PEPTIDE1{A.C.C.S.H.P.V.C.S.A.M.S.P.I.C.[am]}$PEPTIDE1,PEPTIDE1,2:R3-8:R3|PEPTIDE1,PEPTIDE1,3:R3-15:R3$$$V2.0)		100 to 1000				
CC[C@H](C)[C@@H]1NC(=O)[C@@H]2CCCN2C(=O)[C@H](CO)NC(=O)[C@H](CCSC)NC(=O)[C@H](C)NC(=O)[C@H](CO)NC(=O)[C@@H]2CSSC[C@H](NC(=O)CN)C(=O)N[C@@H](CSSC[C@@H](C(N)=O)NC1=O)C(=O)N[C@@H](CO)C(=O)N[C@@H](C)C(=O)N1CCC[C@H]1C(=O)N[C@@H](C(C)C)C(=O)N2 [TxID[H5A]] (HELM PEPTIDE1{G.C.C.S.A.P.V.C.S.A.M.S.P.I.C.[am]}$PEPTIDE1,PEPTIDE1,2:R3-8:R3|PEPTIDE1,PEPTIDE1,3:R3-15:R3$$$V2.0)	> 10000	> 10000				
CC[C@H](C)[C@@H]1NC(=O)[C@@H]2CCCN2C(=O)[C@H](CO)NC(=O)[C@H](CCSC)NC(=O)[C@H](C)NC(=O)[C@H](C)NC(=O)[C@@H]2CSSC[C@H](NC(=O)CN)C(=O)N[C@@H](CSSC[C@@H](C(N)=O)NC1=O)C(=O)N[C@@H](CO)C(=O)N[C@@H](Cc1c[nH]c3ccccc13)C(=O)N1CCC[C@H]1C(=O)N[C@@H](C(C)C)C(=O)N2 [TxID[H5W, S9A]] (HELM PEPTIDE1{G.C.C.S.W.P.V.C.A.A.M.S.P.I.C.[am]}$PEPTIDE1,PEPTIDE1,2:R3-8:R3|PEPTIDE1,PEPTIDE1,3:R3-15:R3$$$V2.0)	> 10000	> 10000				
CC[C@H](C)[C@@H]1NC(=O)[C@@H]2CCCN2C(=O)[C@H](CO)NC(=O)[C@H](CCSC)NC(=O)[C@H](C)NC(=O)[C@H](CO)NC(=O)[C@@H]2CSSC[C@H](NC(=O)CN)C(=O)N[C@@H](CSSC[C@@H](C(N)=O)NC1=O)C(=O)N[C@@H](CO)C(=O)N[C@@H](Cc1c[nH]c3ccccc13)C(=O)N1CCC[C@H]1C(=O)N[C@@H](C(C)C)C(=O)N2 [TxID[H5W]] (HELM PEPTIDE1{G.C.C.S.W.P.V.C.S.A.M.S.P.I.C.[am]}$PEPTIDE1,PEPTIDE1,2:R3-8:R3|PEPTIDE1,PEPTIDE1,3:R3-15:R3$$$V2.0)	> 10000	> 10000				
CSCC[C@@H]1NC(=O)[C@H](C)NC(=O)[C@H](CO)NC(=O)[C@@H]2CSSC[C@H](NC(=O)CN)C(=O)N[C@@H](CSSC[C@@H](C(N)=O)NC(=O)[C@H](C)NC(=O)[C@@H]3CCCN3C(=O)[C@H](CO)NC1=O)C(=O)N[C@@H](CO)C(=O)N[C@@H](Cc1c[nH]cn1)C(=O)N1CCC[C@H]1C(=O)N[C@@H](C(C)C)C(=O)N2 [TxID[I14A]] (HELM PEPTIDE1{G.C.C.S.H.P.V.C.S.A.M.S.P.A.C.[am]}$PEPTIDE1,PEPTIDE1,2:R3-8:R3|PEPTIDE1,PEPTIDE1,3:R3-15:R3$$$V2.0)	16.1	45.8	4.4	2.8	1.3	
CSCC[C@@H]1NC(=O)[C@H](C)NC(=O)[C@H](CO)NC(=O)[C@@H]2CSSC[C@H](NC(=O)CN)C(=O)N[C@@H](CSSC[C@@H](C(N)=O)NC(=O)[C@H](CC(=O)O)NC(=O)[C@@H]3CCCN3C(=O)[C@H](CO)NC1=O)C(=O)N[C@@H](CO)C(=O)N[C@@H](Cc1c[nH]cn1)C(=O)N1CCC[C@H]1C(=O)N[C@@H](C(C)C)C(=O)N2 [TxID[I14D]] (HELM PEPTIDE1{G.C.C.S.H.P.V.C.S.A.M.S.P.D.C.[am]}$PEPTIDE1,PEPTIDE1,2:R3-8:R3|PEPTIDE1,PEPTIDE1,3:R3-15:R3$$$V2.0)	9.8	40.8	2.7	4.2	1.2	
CSCC[C@@H]1NC(=O)[C@H](C)NC(=O)[C@H](CO)NC(=O)[C@@H]2CSSC[C@H](NC(=O)CN)C(=O)N[C@@H](CSSC[C@@H](C(N)=O)NC(=O)[C@H](CC(C)C)NC(=O)[C@@H]3CCCN3C(=O)[C@H](CO)NC1=O)C(=O)N[C@@H](CO)C(=O)N[C@@H](Cc1c[nH]cn1)C(=O)N1CCC[C@H]1C(=O)N[C@@H](C(C)C)C(=O)N2 [TxID[I14L]] (HELM PEPTIDE1{G.C.C.S.H.P.V.C.S.A.M.S.P.L.C.[am]}$PEPTIDE1,PEPTIDE1,2:R3-8:R3|PEPTIDE1,PEPTIDE1,3:R3-15:R3$$$V2.0)	9.98	29	2.8	2.9	0.9	
CC[C@H](C)[C@@H]1NC(=O)[C@H](C)NC(=O)[C@H](CO)NC(=O)[C@@H]2CSSC[C@H](NC(=O)CN)C(=O)N[C@@H](CSSC[C@@H](C(N)=O)NC(=O)[C@H]([C@@H](C)CC)NC(=O)[C@@H]3CCCN3C(=O)[C@H](CO)NC1=O)C(=O)N[C@@H](CO)C(=O)N[C@@H](Cc1c[nH]cn1)C(=O)N1CCC[C@H]1C(=O)N[C@@H](C(C)C)C(=O)N2 [TxID[M11I]] (HELM PEPTIDE1{G.C.C.S.H.P.V.C.S.A.I.S.P.I.C.[am]}$PEPTIDE1,PEPTIDE1,2:R3-8:R3|PEPTIDE1,PEPTIDE1,3:R3-15:R3$$$V2.0)						binding (blocking) activity to α6/α3β4 nAChR compared with wild type TxID (rat α6/α3β4 nAChR): not a decrease
CC[C@H](C)[C@@H]1NC(=O)[C@@H]2CCCN2C(=O)[C@H](CO)NC(=O)[C@H](CCSC)NC(=O)[C@H](C)NC(=O)[C@H](CC(=O)O)NC(=O)[C@@H]2CSSC[C@H](NC(=O)CN)C(=O)N[C@@H](CSSC[C@@H](C(N)=O)NC1=O)C(=O)N[C@@H](CO)C(=O)N[C@@H](Cc1c[nH]cn1)C(=O)N1CCC[C@H]1C(=O)N[C@@H](C(C)C)C(=O)N2 [TxID[S9D]] (HELM PEPTIDE1{G.C.C.S.H.P.V.C.D.A.M.S.P.I.C.[am]}$PEPTIDE1,PEPTIDE1,2:R3-8:R3|PEPTIDE1,PEPTIDE1,3:R3-15:R3$$$V2.0)						blocking effect on the current of rat α6/α3β4 nAChRs (rat α6/α3β4 nAChR): no blocking effect
